“Also recorded” adds a separate entry of the source.
Experiment: Plasma pharmacokinetics after single oral dose in male rats
Format: in vivo
Conditions: single 100 mg oral dose; for AUC(0-t) / Cmax / Tmax: rat, plasma, N=3; for AUC(0-t) / Cmax: geometric mean; for Tmax: median
Description: The d6-THCu was formulated at a concentration of 10% w/w in the amounts and ratios provided below:
Compositions were prepared according to the following process. Set up the 5 L jacketed reaction vessel and Julabo circulation heater. Begin heating the Julabo to 90° C. Dispense Phosal 75 SA, Captex 300, and Labrasol ALF (Items 2, 3, and 4) into appropriately sized containers. Add sthe Phosal 75 SA, Captex 300, and Labrasol ALF to the 5 L reaction vessel. Mix contents until visually homogenous and product reaches a temperature of 85° C.±5° C. Add Tetrahydrocurcumin to vessel containing Phosal 75 SA, Captex 300, and Labrasol ALF while stirring. Mix until completely dissolved and visually homogenous. Reduce the Julabo temperature and allow the solution to cool to 30° C.±5° C. while continuing to stir. Package product by adding 50 mL to appropriate 60 mL bottles. Continue until product is exhausted.
The d6-THCu version of the compound provides a desirable release profile compared to non-deuterated THCu. Compositions were prepared using THCu as well as d6-THCu and their pk profiles were compared.
The plasma concentrations of THCu and THCu-d6 was compared by administering single doses of 100 mg to male rats. […] Individual animal pharmacokinetic parameters comparing THCu and d6-THCu is shown in FIG. 4, and statistics for the individual animal pharmacokinetic parameters is shown in FIG. 5.
Graphs of individual animal plasma concentrations versus time are shown in FIGS. 6-7 (linear axes) and FIGS. 8-9 (semi-logarithmic axes).

Compound	AUC(0-t) [ng·h/mL]	Cmax [ng/mL]	Tmax [h]	plasma concentration versus time / release profile (compared with non-deuterated THCu)
[2H]C([2H])([2H])Oc1cc(CCC(=O)CC(=O)CCc2ccc(O)c(OC([2H])([2H])[2H])c2)ccc1O [THCu-d6, d6-Tetrahydrocurumin]	43000	2820	24	more stable release profile than the non-deuterated version; also recorded: no burst release of active agent after administration
COc1cc(CCC(=O)CC(=O)CCc2ccc(O)c(OC)c2)ccc1O [THCu, tetrahydrocurcumin]	38300	4070	1	–
